Test results as given in patent publication US20240076284A1, “NEW COMPOUNDS AND METHODS” (BENEVOLENTAI BIO LIMITED, priority 2020, published 2024).

Legend:
[1] = Rat microsomal stability; format: in vitro ADME; settings: rat microsomes, second value of cell; NADPH, 37° C., up to 40 min
Protocol: (§1) This assay measures the metabolic stability of a given compound and predicts intrinsic liver clearance for various species. A quench plate is initially prepared which contains 400 μL MeCN and 25 ng/mL of internal standard. An aliquot of microsomes is defrosted and subsequently diluted with buffer. A solution of NADPH is made up fresh just before initialising the assay. 445 μL of microsome solution is added to the desired compound (5 μL in 10 μM DMSO) and the resulting solution mixed. The reaction is initiated by the addition of 50 μL of NADPH, a T0 sample is removed before the addition and quenched. The sample plate is kept at a constant 37° C. during the incubation. At pre-determined timepoints (2.5, 5, 10, 20 and 40 min) the incubation is mixed and 22.5 μL samples are transferred to quench plates. After completion of the time course, the quench plates are sealed and shaken for a minimum of 5 min, before centrifugation at 4000 rpm for 5 min. The supernatant is then subsequently transferred to a fresh plate and diluted 1:3 with MeOH/H2O. The plates are then heat sealed and analysed by a Water Acquity UPLC and a Waters TQ-S mass spectrometer. Waters MassLynx software is used for analysis using an MRM transition that has been previously generated from prior optimisation. After acquiring the data on the system the chromatograms are processed and checked using TargetLynx XS software and the raw data output is copied into a microsomal stability workbook. The workbook automatically populates and derives the CLint, t1/2 and scales the CLint values to generate Eh and predicted CL values. The analyst has the final workbook quality checked before the experiment is signed off.

[2] = Human microsomal stability; format: in vitro ADME; settings: human microsomes, first value of cell; NADPH, 37° C., up to 40 min
Protocol: as §1

[3] = biological target: T1, MDR1 (Homo sapiens, UniProt P08183); test: MDR1-MDCK effective efflux ratio; format: in vitro ADME; settings: MDR1-MDCK relative to wild-type MDCK, 1 μM, 60 minutes, pH 7.4
T1 construct: expressed in transfected cells; host or cells: MDCK (canine kidney) cells
Protocol: (§2) Wild-type MDCK, MDR1-MDCK and BCRP-MDCK cells were seeded into 24 well Transwell plates and cultured for 3 days to form monolayers. Test compound were prepared at 1 μM in Hanks' Balanced Salt Solution containing 25 mM HEPES and loaded into the donor compartments of Transwell plates bearing the cell monolayers (pH 7.4 for both donor and receiver compartments). Lucifer Yellow was added to the apical buffer in all wells to assess integrity of the cell monolayer. Duplicate wells were prepared and incubated at 37° C. in a CO2 incubator. Samples were removed at time zero and 60 minutes and test compound analysed by LC-MS/MS. Concentrations of Lucifer Yellow in the samples was measured using a fluorescence plate reader. The apparent permeability (Papp) values of test compound was determined for both the apical to basal (A>B) and basal to apical (B>A) permeation and the efflux ratio (B>A: A>B) determined in each cell line. The effective efflux ratio was determined from the ratio of either MDR1-MDCK cells or BCRP-MDCK cells relative to the ratio observed in wild-type cells. A higher value represent a better substrate for the efflux mechanism, which is less preferable.

[4] = biological target: T2, BCRP (Homo sapiens, UniProt Q9UNQ0); test: BCRP-MDCK effective efflux ratio; format: in vitro ADME; settings: BCRP-MDCK relative to wild-type MDCK, 1 μM, 60 minutes, pH 7.4
T2 construct: expressed in transfected cells; host or cells: MDCK (canine kidney) cells
T2 sequence (Q9UNQ0 1-655): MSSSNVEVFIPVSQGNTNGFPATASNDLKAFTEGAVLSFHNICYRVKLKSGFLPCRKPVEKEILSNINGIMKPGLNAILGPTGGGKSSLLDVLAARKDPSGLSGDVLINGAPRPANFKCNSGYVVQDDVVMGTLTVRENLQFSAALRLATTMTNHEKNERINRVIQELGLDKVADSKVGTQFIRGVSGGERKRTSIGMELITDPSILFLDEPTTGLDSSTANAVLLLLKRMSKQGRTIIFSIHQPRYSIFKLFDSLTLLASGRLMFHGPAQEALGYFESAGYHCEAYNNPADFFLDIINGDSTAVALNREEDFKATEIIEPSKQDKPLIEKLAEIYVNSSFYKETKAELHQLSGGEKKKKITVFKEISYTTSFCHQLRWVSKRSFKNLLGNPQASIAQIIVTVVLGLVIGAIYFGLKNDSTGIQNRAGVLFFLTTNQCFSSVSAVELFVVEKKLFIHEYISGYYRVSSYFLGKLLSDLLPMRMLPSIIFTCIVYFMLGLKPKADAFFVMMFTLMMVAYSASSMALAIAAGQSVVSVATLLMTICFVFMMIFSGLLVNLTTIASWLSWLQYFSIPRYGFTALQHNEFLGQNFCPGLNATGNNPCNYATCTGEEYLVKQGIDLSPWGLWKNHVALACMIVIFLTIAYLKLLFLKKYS
Protocol: as §2

[5] = biological target: T3, Ba/F3 cells expressing BCR-ABL (Homo sapiens, UniProt P00519); test: Ba/F3 CellTiter-Glo Assay; format: cell-based; settings: 48 h incubation, CellTiter-Glo luminescence
T3 construct: BCR (fusion partner, N-terminal portion of BCR); host or cells: Ba/F3 (murine pro-B cells); the other entry of the earlier key: BCR (P11274, Breakpoint cluster region protein)
T3 sequence (P00519 229-512 limits assumed): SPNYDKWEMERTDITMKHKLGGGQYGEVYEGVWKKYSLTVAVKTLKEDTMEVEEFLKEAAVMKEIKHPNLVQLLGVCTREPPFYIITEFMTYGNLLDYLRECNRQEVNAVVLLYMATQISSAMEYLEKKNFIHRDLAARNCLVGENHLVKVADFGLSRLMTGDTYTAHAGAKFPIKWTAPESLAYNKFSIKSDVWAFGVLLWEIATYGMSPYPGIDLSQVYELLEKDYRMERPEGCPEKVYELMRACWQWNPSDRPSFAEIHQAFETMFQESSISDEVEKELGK
Protocol: The CellTiter-Glo luminescent cell viability assay is a homogeneous method of determining the number of viable cells in culture based on quantification of the ATP present. Briefly, IL-3 dependent Ba/F3 cells are modified to express BCR-ABL. Activity of the transformed kinase overrides IL-3 dependency for cellular proliferation and survival. […] In this assay Ba/F3 cells expressing BCR-ABL (Advanced Cellular Dynamics) or parental Ba/F3 (control) cells were prepared at 5×10^4/mL in RPMI 1640 containing 10% FBS, 1×Glutamax and 750 ng/mL puromycin. Test compounds were dispensed into 384 well plates using the Tecan D300e at a top final assay concentration of 10 μM with dosing normalised to 0.1% DMSO in […]. 50 μL cells were added to each well of the prepared 384 well plates and the plates spun at 1000 rpm for 1 min prior to incubation at 37° C., 5% CO2 for 48 h. After 48 h 15 μL CellTiter-Glo reagent was added to each well in the plate. Following a 60 min incubation at rt luminescence was read on the Pherastar FS reader.

T1 sequence (P08183 whole entry, species assumed): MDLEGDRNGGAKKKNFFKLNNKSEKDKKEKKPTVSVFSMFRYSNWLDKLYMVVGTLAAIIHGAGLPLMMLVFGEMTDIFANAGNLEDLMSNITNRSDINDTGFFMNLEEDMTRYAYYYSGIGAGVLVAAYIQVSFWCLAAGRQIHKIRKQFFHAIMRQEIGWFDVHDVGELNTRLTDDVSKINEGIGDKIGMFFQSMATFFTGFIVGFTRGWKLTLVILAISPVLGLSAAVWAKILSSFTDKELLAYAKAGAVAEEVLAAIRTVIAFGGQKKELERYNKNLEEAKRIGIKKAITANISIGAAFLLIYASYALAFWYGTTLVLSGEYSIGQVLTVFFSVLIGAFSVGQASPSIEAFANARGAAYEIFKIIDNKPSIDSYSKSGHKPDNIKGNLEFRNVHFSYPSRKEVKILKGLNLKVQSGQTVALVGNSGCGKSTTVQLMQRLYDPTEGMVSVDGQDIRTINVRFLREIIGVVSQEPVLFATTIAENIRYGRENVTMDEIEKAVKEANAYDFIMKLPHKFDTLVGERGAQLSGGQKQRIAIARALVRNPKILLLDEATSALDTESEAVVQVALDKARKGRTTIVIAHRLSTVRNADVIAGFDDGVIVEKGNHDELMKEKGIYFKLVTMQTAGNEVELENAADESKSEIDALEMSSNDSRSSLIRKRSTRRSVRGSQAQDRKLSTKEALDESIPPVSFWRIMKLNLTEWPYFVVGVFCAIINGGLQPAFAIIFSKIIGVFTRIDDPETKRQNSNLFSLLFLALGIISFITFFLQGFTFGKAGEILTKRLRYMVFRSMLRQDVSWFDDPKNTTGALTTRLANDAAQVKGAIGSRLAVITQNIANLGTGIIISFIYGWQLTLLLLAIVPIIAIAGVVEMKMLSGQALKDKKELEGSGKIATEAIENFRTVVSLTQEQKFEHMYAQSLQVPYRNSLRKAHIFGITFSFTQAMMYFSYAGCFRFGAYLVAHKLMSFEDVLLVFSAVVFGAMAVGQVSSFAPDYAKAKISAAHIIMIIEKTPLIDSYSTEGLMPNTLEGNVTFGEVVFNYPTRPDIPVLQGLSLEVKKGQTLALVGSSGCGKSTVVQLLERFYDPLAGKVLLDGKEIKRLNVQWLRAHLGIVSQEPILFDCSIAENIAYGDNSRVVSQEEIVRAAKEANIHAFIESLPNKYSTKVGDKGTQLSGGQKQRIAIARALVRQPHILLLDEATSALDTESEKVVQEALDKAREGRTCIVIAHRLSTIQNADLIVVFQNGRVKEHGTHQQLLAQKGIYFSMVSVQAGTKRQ

SMILES	Microsomal stability (human/rat) Eh [1]	Microsomal stability (human/rat) Eh [2]	MDCK MDR1 EER [3]	MDCK BCRP EER [4]	IC50 [5]
Cc1ccc(C(=O)Nc2cc(CN3CCCC3)cc(C(F)(F)F)c2)cc1-n1cc(-c2cccnc2)cn1 [Comparative example 1, 4-Methyl-3-[4-(3-pyridyl)pyrazol-1-yl]-N-[3-(pyrrolidin-1-ylmethyl)-5-(trifluoromethyl)phenyl]benzamide, reference compound]	0.93	0.81			
Cc1ccc(C(=O)Nc2cc(CN3CCOCC3)cc(C(F)(F)F)c2)cc1-n1cc(-c2cccnc2)cn1 [Comparative example 2, 4-Methyl-N-[3-(morpholinomethyl)-5-(trifluoromethyl)phenyl]-3-[4-(3-pyridyl)pyrazol-1-yl]benzamide, reference compound]	0.99	0.96	6.5	1.8	
Cc1ccc(C(=O)Nc2cc(C(F)(F)F)ccn2)cc1-n1ccc(-c2cccnc2)n1 [Comparative example 4, 4-Methyl-3-[3-(3-pyridyl)pyrazol-1-yl]-N-[4-(trifluoromethyl)-2-pyridyl]benzamide, reference compound]					2.71 µM
Cc1ccc(C(=O)Nc2cc(C(F)(F)F)ccn2)cc1-n1cc(-c2cccnc2)cn1 [Example 1, 4-Methyl-3-[4-(3-pyridyl)pyrazol-1-yl]-N-[4-(trifluoromethyl)-2-pyridyl]benzamide]	0.69	0.70	1	1.5	0.022 µM
Cc1ccc(C(=O)Nc2cc(C(F)(F)F)cnn2)cc1-n1cc(-c2cccnc2)cn1 [Example 2, 4-Methyl-3-[4-(3-pyridyl)pyrazol-1-yl]-N-[5-(trifluoromethyl)pyridazin-3-yl]benzamide]	0.67	0.56	2.9	1.5	0.04 µM
Cc1ccc(C(=O)Nc2cc(C(F)(F)F)ccn2)cc1-n1cc(-c2cncnc2)cn1 [Example 3, 4-Methyl-3-(4-pyrimidin-5-ylpyrazol-1-yl)-N-[4-(trifluoromethyl)-2-pyridyl]benzamide]	0.44	0.56	1.0	1.0	0.025 µM
CNc1ncc(-c2cnn(-c3cc(C(=O)Nc4cc(C(F)(F)F)ccn4)ccc3C)c2)cn1 [Example 5, 4-Methyl-3-[4-[2-(methylamino)pyrimidin-5-yl]pyrazol-1-yl]-N-[4-(trifluoromethyl)-2-pyridyl]benzamide]			1.1	1.0	0.054 µM
Cc1ccc(C(=O)Nc2cc(C(F)(F)F)ccn2)cc1-n1cc(-c2cncc(N3CCN(C)CC3)c2)cn1 [Example 6, 4-Methyl-3-[4-[5-(4-methylpiperazin-1-yl)-3-pyridyl]pyrazol-1-yl]-N-[4-(trifluoromethyl)-2-pyridyl]benzamide]					0.083 µM
Cc1cncc(-c2cnn(-c3cc(C(=O)Nc4cc(C(F)(F)F)ccn4)ccc3C)c2)c1 [Example 7]			1.2	0.8	0.032 µM
Cc1ccc(C(=O)Nc2cc(C(F)(F)F)ccn2)cc1-n1cc(-c2cncc(F)c2)cn1 [Example 8, 3-[4-(5-Fluoropyridin-3-yl)-1H-pyrazol-1-yl]-4-methyl-N-[4-(trifluoromethyl)pyridin-2-yl]benzamide]			1.6	1.1	0.029 µM
COc1cncc(-c2cnn(-c3cc(C(=O)Nc4cc(C(F)(F)F)ccn4)ccc3C)c2)c1 [Example 9, 3-[4-(5-methoxypyridin-3-yl)-1H-pyrazol-1-yl]-4-methyl-N-[4-(trifluoromethyl)pyridin-2-yl]benzamide]			1.2	1.1	0.028 µM
Cc1ccc(C(=O)Nc2cc(C(F)(F)F)cc(C#N)n2)cc1-n1cc(-c2cccnc2)cn1 [Example 10, N-[6-cyano-4-(trifluoromethyl)pyridin-2-yl]-4-methyl-3-[4-(pyridin-3-yl)-1H-pyrazol-1-yl]benzamide]	0.65	0.70			0.018 µM
Cc1ccc(C(=O)Nc2cc(C(F)(F)F)cnn2)cc1-n1cc(-c2cccnc2)nn1 [compound 3, 4-Methyl-3-[4-(3-pyridyl)triazol-1-yl]-N-[5-(trifluoromethyl)pyridazin-3-yl]benzamide, reference compound]			9.8	8.5	
Cc1ccc(C(=O)Nc2ccc(CN3CCN(C)CC3)c(C(F)(F)F)c2)cc1-n1cc(-c2cnc(N)nc2)nn1 [compound 5, 3-[4-(2-aminopyrimidin-5-yl)triazol-1-yl]-4-methyl-N-[4-[(4-methylpiperazin-1-yl)methyl]-3-(trifluoromethyl)phenyl]benzamide, reference compound]			4.3	2.1	
Cc1ccc(C(=O)Nc2cc(C(F)(F)F)c(CN3CCN(C)CC3)cn2)cc1-n1cc(-c2cccnc2)cn1 [compound 6, 4-Methyl-N-[5-[(4-methylpiperazin-1-yl)methyl]-4-(trifluoromethyl)-2-pyridyl]-3-[4-(3-pyridyl)pyrazol-1-yl]benzamide, reference compound]			15.8	5.0	
